# Patent publication US7683181B2, “Cyclic N-[1,3,4]-thiadiazol-2-yl-benzene sulfonamides, pharmaceutical compositions and methods for the therapeutic use thereof” (Sanofi-aventis, priority 2005, dated 2010)
# Assays:
# human PPARdelta = target: T1, human PPARdelta (Homo sapiens, UniProt Q03181); experiment: cellular PPARdelta assay (stably transfected HEK luciferase reporter cell line); type: cell-based; conditions: GR-GAL4-humanPPARdelta-LBD
# T1 construct: amino acids S139-Y441; expressed in transfected cells
# T1 sequence (Q03181 139-441): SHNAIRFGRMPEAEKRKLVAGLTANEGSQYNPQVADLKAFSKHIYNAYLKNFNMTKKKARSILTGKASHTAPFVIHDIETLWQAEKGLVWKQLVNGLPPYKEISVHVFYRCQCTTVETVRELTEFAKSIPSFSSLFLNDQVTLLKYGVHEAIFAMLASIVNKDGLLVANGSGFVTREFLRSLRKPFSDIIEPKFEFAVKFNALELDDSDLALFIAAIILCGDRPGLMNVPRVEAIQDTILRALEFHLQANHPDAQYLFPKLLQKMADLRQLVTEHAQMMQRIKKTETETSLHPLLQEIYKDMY
# Protocol: The assay plates are incubated in an incubator at 37° C. and 5% CO2 for 24 h. […]
# The raw data from the luminometer are transferred into a Microsoft Excel file. Dose-effect plots and EC50 values of PPAR agonists are calculated using the XL.Fit program as specified by the manufacturer (IDBS).
# The potency of substances which bind to human PPARdelta and activate it in an agonistic manner was analyzed through the determination of the EC50 values of PPAR agonists in the cellular PPARdelta assay using a stably transfected HEK cell line (HEK=human embryo kidney) which is referred to here as PPARdelta reporter cell line. In analogy to the assay described for PPARalpha, the PPARdelta reporter cell line also contains two genetic elements, a luciferase reporter element (pdeltaM-GAL4-Luc-Zeo) and a PPARdelta fusion protein (GR-GAL4-humanPPARdelta-LBD) which mediates expression of the luciferase reporter element depending on a PPARdelta ligand. The stably and constitutively expressed fusion protein GR-GAL4-humanPPARdelta-LBD binds in the cell nucleus of the PPARdelta reporter cell line via the GAL4 protein portion to the GAL4 DNA binding motifs 5′-upstream of the luciferase reporter element which is stably integrated in the genome of the cell line. There is only little expression of the luciferase reporter gene in the absence of a PPARdelta ligand if fatty acid-depleted fetal calf serum (cs-FCS) is used in the assay. PPARdelta ligands bind and activate the PPARdelta fusion protein and thereby stimulate expression of the luciferase reporter gene. The luciferase which is formed can be detected by means of chemiluminescence via an appropriate substrate.
# The production of the stable PPARdelta reporter cell line is based on a stable HEK-cell clone which was stably transfected with a luciferase reporter element. This step was already described above in the section “construction of the PPARalpha reporter cell line”. […]
# The activity of PPARdelta agonists is determined in a 3-day assay in exact analogy to the procedure already described for the PPARalpha reporter cell line except that the PPARdelta reporter cell line and a specific PPARdelta agonist was used as a standard to control test efficacy.
# human PPARgamma = target: T2, human PPARgamma (Homo sapiens, UniProt P37231); experiment: cellular PPARgamma assay (transiently transfected HEK cells, luciferase reporter); type: cell-based; conditions: GAL4-humanPPARgammaLBD
# T2 construct: amino acids I152-Y475; expressed in transfected cells; host or cells: HEK cells, transient transfection of pcDNA3-GAL4-humanPPARgammaLBD
# T2 sequence (P37231 with tags, fused parts or gaps isoform P37231-2 limits assumed): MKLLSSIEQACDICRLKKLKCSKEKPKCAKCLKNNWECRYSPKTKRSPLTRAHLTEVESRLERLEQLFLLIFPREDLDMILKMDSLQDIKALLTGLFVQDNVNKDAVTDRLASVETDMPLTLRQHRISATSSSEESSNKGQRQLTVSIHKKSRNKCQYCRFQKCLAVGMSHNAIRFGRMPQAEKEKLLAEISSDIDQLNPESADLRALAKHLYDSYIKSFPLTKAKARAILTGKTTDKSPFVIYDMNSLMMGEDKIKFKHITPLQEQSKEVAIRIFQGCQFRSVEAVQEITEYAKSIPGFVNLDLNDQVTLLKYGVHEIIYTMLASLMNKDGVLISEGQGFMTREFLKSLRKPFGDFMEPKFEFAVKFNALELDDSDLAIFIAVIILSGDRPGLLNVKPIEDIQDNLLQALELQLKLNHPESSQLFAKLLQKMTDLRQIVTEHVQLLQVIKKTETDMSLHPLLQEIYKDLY
# Excerpt: Determination of EC50 values of PPAR agonists in the cellular PPARgamma assay
# A transient transfection system is employed to determine the cellular PPARgamma activity of PPAR agonists. It is based on the use of a luciferase reporter plasmid (pGL3basic-5×GAL4-TK) and of a PPARgamma expression plasmid (pcDNA3-GAL4-humanPPARgammaLBD). Both plasmids are transiently transfected into human embryonic kidney cells (HEK cells). There is then expression in these cells of the fusion protein GAL4-humanPPARgammaLBD which binds to the GAL4 binding sites of the reporter plasmid. In the presence of a PPARgamma-active ligand, the activated fusion protein GAL4-humanPPARgammaLBD induces expression of the luciferase reporter gene, which can be detected in the form of a chemiluminescence signal after addition of a luciferase substrate. As a difference from the stably transfected PPARalpha reporter cell line, in the cellular PPARgamma assay the two components (luciferase reporter plasmid and PPARgamma expression plasmid) are transiently transfected into HEK cells because stable and permanent expression of the PPARgamma fusion protein is cytotoxic.
# The luciferase reporter plasmid pGL3basic-5×GAL4-TK is based on the vector pGL3basic from Promega. The reporter plasmid is prepared by cloning five binding sites of the yeast transcription factor GAL4 (each binding site with the sequence 5′-CTCGGAGGACAGTACTCCG-3′), together with a 160 bp-long thymidine kinase promoter section (Genbank Accession #AF027128) 5′-upstream into pGL3basic. 3′-downstream of the thymidine kinase promoter is the complete luciferase gene from Photinus pyralis (Genbank Accession #M15077) which is already a constituent of the plasmid pGL3basic used. The cloning and sequencing of the reporter plasmid pGL3basic-5×GAL4-TK took place in analogy to the description in Sambrook J. et. al. (Molecular cloning, Cold Spring Harbor Laboratory Press, 1989).
# The PPARgamma expression plasmid pcDNA3-GAL4-humanPPARgammaLBD was prepared by first cloning the cDNA coding for amino acids 1-147 of the yeast transcription factor GAL4 (Genbank Accession #P04386) into the plasmid pcDNA3 (from Invitrogen) 3′-downstream of the cytomegalovirus promoter. Subsequently, the cDNA of the ligand-binding domain (LBD) of the human PPARgamma receptor (amino acids I152-Y475; Accession #g1480099) 3′-downstream of the GAL4 DNA binding domain. Cloning and sequencing of the PPARgamma expression plasmid pcDNA3-GAL4-humanPPARgammaLBD again took place in analogy to the description in Sambrook J. et. al. (Molecular cloning, Cold Spring Harbor Laboratory Press, 1989). […]
# The activity of PPARgamma agonists is determined in a 4-day assay which is described below. […]
# PPARdelta [1] = conditions: diabetic animal model; cited from earlier work
# PPARdelta [2] = conditions: obese, insulin resistant rhesus monkeys; cited from earlier work
SMILES,EC50 (human PPARdelta),EC50 (human PPARgamma),further results
"CCOc1cc(C(F)(F)F)ccc1C(=O)N[C@@H]1CCC[C@H]1c1ccc(S(=O)(=O)Nc2nnc(C(C)C)s2)cc1 (relative stereo) [Example 2, 2-Ethoxy-N-{trans-2-[4-(5-isopropyl-[1,3,4]thiadiazol-2-ylsulfamoyl)-phenyl]-cyclopentyl}-4-trifluoromethyl-benzamide]",26 nM,430 nM,–
"CCOc1cc(C(F)(F)F)ccc1C(=O)N[C@@H]1CCC[C@@H]1c1ccc(S(=O)(=O)Nc2nnc(C(C)C)s2)cc1 (relative stereo) [Example 3, 2-Ethoxy-N-{cis-2-[4-(5-isopropyl-[1,3,4]thiadiazol-2-ylsulfamoyl)-phenyl]-cyclopentyl}-4-trifluoromethyl-benzamide]",240 nM,230 nM,–
"CCOc1cc(C(F)(F)F)ccc1C(=O)NCC1(c2ccc(S(=O)(=O)Nc3nnc(C(C)C)s3)cc2)CCCCC1 [Example 1, 2-Ethoxy-N-{1-[4-(5-isopropyl-[1,3,4]thiadiazol-2-ylsulfamoyl)-phenyl]-cyclohexylmethyl}-4-trifluoromethyl-benzamide]",120 nM,> 10000 nM,–
"CCOc1cc(C(F)(F)F)ccc1C(=O)NCC1(c2ccc(S(=O)(=O)Nc3nnc(C(C)C)s3)cc2)CCCC1 [Example 4, 2-Ethoxy-N-{1-[4-(5-isopropyl-[1,3,4]thiadiazol-2-ylsulfamoyl)-phenyl]-cyclopentylmethyl}-4-trifluoromethyl-benzamide]",21 nM,7 nM,–
CCCc1c(OCCCOc2ccc(OCC(=O)O)cc2)ccc(C(C)=O)c1O [Example L-165041],–,–,plasma cholesterol (PPARdelta [1]): raises
Cc1cc(SCc2sc(-c3ccc(C(F)(F)F)cc3)nc2C)ccc1OCC(=O)O [GW501516],–,–,HDL-cholesterol (PPARdelta [2]): raises; insulin levels (PPARdelta [2]): decreases; plasma LDL-cholesterol (PPARdelta [2]): decreases; triglycerides (PPARdelta [2]): decreases
